{"source": "patent US7662412B2", "about": "“Traditional Chinese medicine composition to treat rheumatoid arthritis and preparation method thereof” (priority 2005, dated 2010)", "key": {"interleukin-1 (IL-1)": {"tested_on": "interleukin-1 (IL-1)", "assay": "IL-1 activity of LPS-induced peritoneal macrophages of adjuvant arthritis rats (thymocyte bioassay)", "type": "in vivo, rat", "conditions": "AA rats, 5 mg; 570 nm; model group 0.87 ± 0.03", "experimental": "Fizzer complete adjuvant (from Sigma Co.) was emulsified and injected subcutaneously and sterilely 0.1 ml into the right meta voix pedis of each rat (♂, 160±20 g) to establish a model of adjuvant-induced arthritis.\nPreparation of peritoneal macrophage: Execute rats at 25th days after injecting complete adjuvant, then rapidly inject proper amount of Hank's solution into the belly of them, and rub their abdominal wall several times before collecting peritoneal fluid. Wash it with Hank's solution containing 5% calf serum twice, then prepare 1×10^6/mL cell suspension with wholly swelling RPMI1640. Transfer into a culture plate with 24 wells, 1 ml each well. Incubate them in a 5% CO2 incubator overnight at a temperature of 37° C., abandon the supernatant fluid, wash with pre-warmed Hank's solution containing 5% calf serum at 37° C. twice, and remove un-adherent cell. The residue was peritoneal macrophage.\n2. IL-1 induction: Add 10 μg/mL lipopolysaccharide (LPS) to the above culture plate with 24 wells, then incubate for 24 hours, centrifuge (2000 rpm, 5 min), collect the […], and filter with micropore filter. This solution was the IL-1 sample to be detected. 3. […]"}, "[1]": {"tested_on": "DTH T cell subsets (L3T4+, Lyt-2+)", "assay": "DTH T cell subsets of mouse (DNFB, splenic lymphocytes, immunofluorescence)", "conditions": "5 mg"}}}
{"smiles": "C[C@]12C=CC(=O)C=C1CC[C@@H]1[C@@H]2C(=O)C[C@@]2(C)[C@H]1CC[C@]2(O)C(=O)CO", "note": "[Prednisone]", "values": [{"measurement": "OD Value (IL-1 activity)", "setting": "interleukin-1 (IL-1)", "value": "0.34 ± 0.02"}, {"measurement": "Cells number L3T4^+", "setting": "[1]", "value": "59.6 ± 7.5", "unit": "%"}, {"measurement": "Cells number Lyt-2^+", "setting": "[1]", "value": "56.2 ± 3.8", "unit": "%"}, {"measurement": "L3T4^+/Lyt-2^+", "setting": "[1]", "value": "1.21 ± 0.14"}]}
